Measurements from patent US9884842B2, “Combretastatin analogs” (The Board of Trustees of the University of Arkansas, priority 2013, dated 2018).

Key:
SF-295 = test: NCI growth inhibition and cytotoxicity screen, CNS Cancer panel; type: cell-based; conditions: Homo sapiens, SF-295, Table 1, cell line SF-2395 (CNS Cancer); for CC50: read-out: LC50 (the source's name)
MDA-MB-468 = test: cells; conditions: Homo sapiens; for GI50: MDA-MB-468; for CC50: MDA-MB-468, read-out: LC50
K-562 = test: NCI growth inhibition and cytotoxicity screen, Leukemia panel; conditions: Homo sapiens; for CC50: K562, read-out: LC50
SR = test: as above; conditions: Homo sapiens; for CC50: read-out: LC50
MALME-3M = test: NCI growth inhibition and cytotoxicity screen, Melanoma panel; conditions: Homo sapiens; for CC50: read-out: LC50
MDA-MB-435 = test: as above; conditions: Homo sapiens; for GI50: MDA-MB-435; for CC50: MDA-MB-435, read-out: LC50
SK-MEL-2 = test: as above; conditions: Homo sapiens; for GI50: SK-MEL-2; for CC50: SK-MEL-2, read-out: LC50
SK-MEL-5 = test: as above; conditions: Homo sapiens; for GI50: SK-MEL-5; for CC50: SK-MEL-5, read-out: LC50
UACC-257 = test: as above; conditions: Homo sapiens; for GI50: UACC-257; for CC50: UACC-257, read-out: LC50
UACC-62 = test: as above; conditions: Homo sapiens; for GI50: UACC-62; for CC50: UACC-62, read-out: LC50
SF-268 = test: NCI growth inhibition and cytotoxicity screen, CNS Cancer panel; conditions: Homo sapiens; for GI50: SF-268; for CC50: SF-268, read-out: LC50
U251 = test: as above; conditions: Homo sapiens; for GI50: U-251; for CC50: U-251, read-out: LC50
NCI-H322M = test: NCI growth inhibition and cytotoxicity screen, Lung Cancer panel; conditions: Homo sapiens; for CC50: read-out: LC50
NCI-H460 = test: as above; conditions: Homo sapiens; for GI50: NCI-H460; for CC50: NCI-H460, read-out: LC50
HCT-15 = test: NCI growth inhibition and cytotoxicity screen, Colon Cancer panel; conditions: Homo sapiens; for GI50: HCT-15; for CC50: HCT-15, read-out: LC50
HT29 = test: as above; conditions: Homo sapiens; for GI50: HT-29; for CC50: HT-29, read-out: LC50
A498 = test: NCI growth inhibition and cytotoxicity screen, Renal Cancer panel; conditions: Homo sapiens; for GI50: A498; for CC50: A498, read-out: LC50
ACHN = test: as above; conditions: Homo sapiens; for CC50: read-out: LC50
CAKI-1 = test: as above; conditions: Homo sapiens; for GI50: CAKI-1; for CC50: CAKI-1, read-out: LC50
RXF 393 = test: as above; conditions: Homo sapiens; for GI50: RXF 393; for CC50: RXF 393, read-out: LC50
TK-10 = test: as above; conditions: Homo sapiens; for GI50: TK-10; for CC50: TK-10, read-out: LC50
MCF7 = test: NCI growth inhibition and cytotoxicity screen, Breast Cancer panel; conditions: Homo sapiens; for GI50: MCF7; for CC50: MCF7, read-out: LC50
MDA-MB-231/ATCC = test: as above; conditions: Homo sapiens; for GI50: MDA-MB-231; for CC50: MDA-MB-231, read-out: LC50
OVCAR-4 = test: NCI growth inhibition and cytotoxicity screen, Ovarian Cancer panel; conditions: Homo sapiens; for GI50: OVCAR-4; for CC50: OVCAR-4, read-out: LC50
OVCAR-5 = test: as above; conditions: Homo sapiens; for GI50: OVCAR-5; for CC50: OVCAR-5, read-out: LC50
OVCAR-8 = test: as above; conditions: Homo sapiens; for GI50: OVCAR-8; for CC50: OVCAR-8, read-out: LC50
DU-145 = test: NCI growth inhibition and cytotoxicity screen, Prostate Cancer panel; conditions: Homo sapiens; for GI50: DU-145; for CC50: DU-145, read-out: LC50

Compound: COc1cc(OC)cc(/C(C#N)=C/c2c[nH]c3ccccc23)c1 [Formula (I)(b)]
- GI50 (SF-295): 45.3 nM
- CC50 (SF-295): > 100000 nM
- GI50 (MDA-MB-468): > 100 nM
- CC50 (MDA-MB-468): > 100000 nM
- GI50 (K-562; K562): 43.2 nM
- CC50 (K-562): > 100000 nM
- GI50 (SR): 33.4 nM
- CC50 (SR): > 100000 nM
- CC50 (MALME-3M): > 100000 nM
- GI50 (MDA-MB-435): 20.3 nM
- CC50 (MDA-MB-435): > 100000 nM
- GI50 (SK-MEL-2): 51.2 nM
- CC50 (SK-MEL-2): > 100000 nM
- GI50 (SK-MEL-5): 48.6 nM
- CC50 (SK-MEL-5): > 100000 nM
- GI50 (UACC-257): 48.7 nM
- CC50 (UACC-257): > 100000 nM
- GI50 (UACC-62): 49.3 nM
- CC50 (UACC-62): > 100000 nM
- GI50 (SF-268): 78.3 nM
- CC50 (SF-268): > 100000 nM
- GI50 (U251): 45.4 nM
- CC50 (U251): > 100000 nM
- CC50 (NCI-H322M): > 100000 nM
- GI50 (NCI-H460): 39.2 nM
- CC50 (NCI-H460): > 100000 nM
- GI50 (HCT-15): 53.5 nM
- CC50 (HCT-15): > 100000 nM
- GI50 (HT29): 38.4 nM
- CC50 (HT29): > 100000 nM
- GI50 (A498): 35.3 nM
- CC50 (A498): > 100000 nM
- GI50 (ACHN): > 100 nM
- CC50 (ACHN): > 100000 nM
- GI50 (CAKI-1): 35 nM
- CC50 (CAKI-1): > 100000 nM
- GI50 (RXF 393): 83.7 nM
- CC50 (RXF 393): > 100000 nM
- GI50 (TK-10): > 100 nM
- CC50 (TK-10): > 100000 nM
- GI50 (MCF7): 41.4 nM
- CC50 (MCF7): > 100000 nM
- GI50 (MDA-MB-231/ATCC): > 100 nM
- CC50 (MDA-MB-231/ATCC): > 100000 nM
- GI50 (OVCAR-4): > 100 nM
- CC50 (OVCAR-4): > 100000 nM
- GI50 (OVCAR-5): > 100 nM
- CC50 (OVCAR-5): > 100000 nM
- GI50 (OVCAR-8): > 100 nM
- CC50 (OVCAR-8): > 100000 nM
- GI50 (DU-145): > 100 nM
- CC50 (DU-145): > 100000 nM

Compound: COc1cc(/C=C/c2cc3ccccc3o2)cc(OC)c1OC [Formula (I)(c)]
- GI50 (SF-295): 0.35 nM
- CC50 (SF-295): > 100000 nM
- GI50 (MDA-MB-468): 0.66 nM
- CC50 (MDA-MB-468): > 100000 nM
- CC50 (K-562): > 100000 nM
- GI50 (SR): 0.09 nM
- CC50 (SR): > 100000 nM
- GI50 (MALME-3M): 0.41 nM
- CC50 (MALME-3M): 86300 nM
- GI50 (MDA-MB-435): 0.078 nM
- CC50 (MDA-MB-435): > 100000 nM
- GI50 (SK-MEL-2): 0.76 nM
- CC50 (SK-MEL-2): > 100000 nM
- GI50 (SK-MEL-5): 0.34 nM
- CC50 (SK-MEL-5): 42000 nM
- GI50 (UACC-257): 16.4 nM
- CC50 (UACC-257): > 100000 nM
- GI50 (UACC-62): 0.5 nM
- CC50 (UACC-62): > 100000 nM
- GI50 (SF-268): 0.86 nM
- CC50 (SF-268): > 100000 nM
- GI50 (U251): 0.66 nM
- CC50 (U251): 81200 nM
- GI50 (NCI-H322M): 15.9 nM
- CC50 (NCI-H322M): > 100000 nM
- GI50 (NCI-H460): 0.41 nM
- CC50 (NCI-H460): > 100000 nM
- GI50 (HCT-15): 0.4 nM
- CC50 (HCT-15): > 100000 nM
- GI50 (HT29): 0.37 nM
- CC50 (HT29): > 100000 nM
- GI50 (A498): 0.4 nM
- CC50 (A498): 48400 nM
- GI50 (ACHN): 0.86 nM
- CC50 (ACHN): > 100000 nM
- GI50 (CAKI-1): 0.58 nM
- CC50 (CAKI-1): > 100000 nM
- GI50 (RXF 393): 0.32 nM
- CC50 (RXF 393): > 100000 nM
- GI50 (TK-10): 8.4 nM
- CC50 (TK-10): > 100000 nM
- GI50 (MCF7): 0.37 nM
- CC50 (MCF7): > 100000 nM
- GI50 (MDA-MB-231/ATCC): 1.17 nM
- CC50 (MDA-MB-231/ATCC): > 100000 nM
- GI50 (OVCAR-4): 1.15 nM
- CC50 (OVCAR-4): > 100000 nM
- GI50 (OVCAR-5): 2.94 nM
- CC50 (OVCAR-5): > 100000 nM
- GI50 (OVCAR-8): 2.05 nM
- CC50 (OVCAR-8): > 100000 nM
- GI50 (DU-145): 1.86 nM
- CC50 (DU-145): > 100000 nM
